Reference: patent US20180344702A1, “METHODS FOR TREATING PATIENTS WITH HEMATOLOGIC MALIGNANCIES” (Aptose Biosciences, Inc., priority 2017, published 2018)

What was measured:
FLT3(D835Y) = molecular target: T1, FLT3(D835Y) (Homo sapiens, UniProt P36888, D835Y); test: Binding constant (Kd), competition binding with qPCR readout
T1 construct: made in house; host or cells: E. coli BL21-derived host (T7 phage) or HEK-293

FLT3(N841I) = molecular target: T2, FLT3(N841I) (Homo sapiens, UniProt P36888, N841I); test: as above
T2 construct: made in house; host or cells: E. coli BL21-derived host (T7 phage) or HEK-293

FLT3(WT) [1] = molecular target: T3, FLT3(WT) (Homo sapiens, UniProt P36888); test: as above
FLT3(WT) [2] = molecular target: T3, FLT3(WT); test: Inhibition of FLT3, kinase IC50; format: biochemical
Experimental: RBC HotSpot Kinase Assay Protocol:
Reagents used: Base Reaction buffer; 20 mM Hepes (pH 7.5), 10 mM MgCl2, 1 mM EGTA, 0.02% Brij35, 0.02 mg/ml BSA, 0.1 mM Na3VO4, 2 mM DTT, 1% DMSO. Required cofactors are added individually to each kinase reaction.
Compound 7 was dissolved in 100% DMSO to a specified concentration. The serial dilution was conducted by epMotion 5070 in DMSO. The substrate was freshly prepared in Reaction Buffer and any required cofactors to the substrate solution were added. The kinase was added to the solution and gently mixed. Compound 7 was added in 100% DMSO into the kinase reaction mixture by Acoustic technology (Echo550; nanoliter range), and incubated for 20 min at room temperature. ^33P-ATP (Specific activity 10 μCi/μl) was added into the reaction mixture to initiate the reaction, which was incubated for 2 hours, whereupon kinase activity was detected by the filter-binding method.

ITK = ITK (Homo sapiens, UniProt Q08881); test: Key off-targets (Table 8); format: biochemical
KG-1 = test: Cytotoxicity, MTS cell viability; format: cell-based; settings: Homo sapiens, AML, 72 hour MTS
Experimental: (§1) Cytotoxicity procedure: Cells were seeded in 96-well plate and treated with vehicle DMSO or Compound 7 at a specified concentration and incubated for 72 hours.

Molm-13 = test: Cytotoxicity, MTS cell viability; format: cell-based; settings: Homo sapiens, AML, 72 hour MTS
Experimental: as §1

THP-1 = test: Cytotoxicity, MTS cell viability; format: cell-based; settings: Homo sapiens, AML, 72 hour MTS
Experimental: as §1

Ba/F3-FLT3 (FLT3-WT) = test: Antiproliferative activity (Table 6); format: cell-based, Murin; settings: 72 h
[3] = tested on: MOLM14 (FLT3-ITD, t(9:11)); test: Antiproliferative activity (Table 6); format: cell-based; settings: Homo sapiens, MOLM-14, 72 h
Kasumi-1 (FLT3-WT) = test: Antiproliferative activity (Table 6); format: cell-based; settings: Homo sapiens, Kasumi 1, 72 h
[4] = Pharmacokinetic study in rat; format: in vivo
[5] = tested on: human cells (e.g., FLTs-ITD-mutated leukemia cells MV4-11); test: Mouse xenograft model, tumor volume; format: in vivo, mice; settings: several doses over a 22-day period, vs control or Ibrutinib
Experimental: Animal Study: Balb/c mice were injected (SQ) with human cells (e.g., FLTs-ITD-mutated leukemia cells MV4-11), and treated orally (q.d.) with the indicated doses of Compound 7 for 14 days. The effect (e.g., anti-leukemia) was assessed by measuring tumor burden. Oral toxicity was evaluated, for example, by measuring body weight. Compound 7 concentrations in plasma were measured at the indicated time points after dosing at the first day.

[6] = tested on: various heme cell lines (MV4-11, NOMO-1, and KG-1 cells); test: Polyploidy, EdU and PI staining with FACS; format: cell-based; settings: 24 hours, increasing concentrations
Experimental: MV4-11, NOMO-1, and KG-1 cells were treated at increasing concentrations of Compound 7 for 24 hours, and the increase in DNA content or polploidy phenotype was assessed using EdU and PI staining followed by FACS analysis using the BD Accuri C6 flow.

KG-1 cells = test: Cell-cycle dysregulation (flow cytometry); format: cell-based; settings: dose-dependent
Experimental: (§2) Cell-cycle analysis: Cells were treated with vehicle, DMSO or Compound 7 and were stained with PI and EdU, and then analyzed by flow cytometry to determine the phases of cell cycle.

NOMO-1 cells = test: Cell-cycle dysregulation (flow cytometry); format: cell-based; settings: dose-dependent
Experimental: as §2

[7] = tested on: isogenic BA/F3 cells with FLT3 mutations; test: Cell-cycle dysregulation (flow cytometry); format: cell-based; settings: dose-dependent
Experimental: as §2

[8] = tested on: Aurora kinase in MV4-11 cells; test: Cell signaling Western blot; format: cell-based, human; settings: FIG. 24
Experimental: (§3) Immunoblot assays: Cells were treated with Compound 7 at various concentrations and collected for cell lysates. The total and phosphorylated levels of the indicated proteins were determined by Western Blot.

[9] = tested on: Aurora kinase in FLT3 WT cells (KG-1); test: Cell signaling Western blot; format: cell-based; settings: KG-1 cells, FIGS. 25A-25B
Experimental: as §3

[10] = tested on: PDGFRA and FLT3 (WT) signaling in EOL-1 cells; test: Cell signaling Western blot; format: cell-based
Experimental: as §3

Ramos [11] = test: Apoptosis in B-cell malignancies (annexin V/PI, cleaved PARP); format: cell-based; settings: increasing concentrations
Experimental: Mechanistic studies were undertaken to determine the mechanism of action for Compound 7. The apoptotic state of treated cells was determined by staining with annexin V and propidium iodide (PI), then analysis with the BD Accuri C6 flow cytometer, whereby live cells are annexin V/PI negative, early apoptotic cells are annexin V positive and late apoptotic cells are annexin V and PI positive. In addition production of cleaved PARP, a classic apoptotic marker, was assayed by western blotting with specific antibodies.

Ramos [12] = test: Polyploidy in B-cell lines (Edu and PI staining, FACS); format: cell-based; settings: 5 nM
Experimental: Further mechanistic studies were undertaken to fully elucidate Compound 7's potent cytotoxicity. B-cell lines were treated with vehicle or Compound 7 for 24-72 hours and the increase in DNA content or polyploidy phenotype was assessed using Edu and PI staining followed by FACS analysis using the BD Accuri C6 flow cytometer.
Mino and Ramos cell lines were treated with increasing concentrations of.

[13] = tested on: BTK and Aurora kinase in Ramos cells; test: Cell signaling in Ramos cells (Western blot); format: cell-based; settings: relative to ibrutinib
Experimental: as §3

[14] = tested on: BCR signaling in Ramos cells; test: BCR signaling in IgM-stimulated Ramos cells; format: cell-based; settings: 1 or 6 hours, then 12 μg/mL IgM for 3 min
Experimental: In this experiment, Ramos cells were treated with or without Compound 7 or Ibrutinin at the indicated concentration for 1 (6 replicates) or 6 (3 replicates) hours, then stimulated with 12 μg/mL IgM for 3 min.

Sequence of ITK (Q08881 whole entry): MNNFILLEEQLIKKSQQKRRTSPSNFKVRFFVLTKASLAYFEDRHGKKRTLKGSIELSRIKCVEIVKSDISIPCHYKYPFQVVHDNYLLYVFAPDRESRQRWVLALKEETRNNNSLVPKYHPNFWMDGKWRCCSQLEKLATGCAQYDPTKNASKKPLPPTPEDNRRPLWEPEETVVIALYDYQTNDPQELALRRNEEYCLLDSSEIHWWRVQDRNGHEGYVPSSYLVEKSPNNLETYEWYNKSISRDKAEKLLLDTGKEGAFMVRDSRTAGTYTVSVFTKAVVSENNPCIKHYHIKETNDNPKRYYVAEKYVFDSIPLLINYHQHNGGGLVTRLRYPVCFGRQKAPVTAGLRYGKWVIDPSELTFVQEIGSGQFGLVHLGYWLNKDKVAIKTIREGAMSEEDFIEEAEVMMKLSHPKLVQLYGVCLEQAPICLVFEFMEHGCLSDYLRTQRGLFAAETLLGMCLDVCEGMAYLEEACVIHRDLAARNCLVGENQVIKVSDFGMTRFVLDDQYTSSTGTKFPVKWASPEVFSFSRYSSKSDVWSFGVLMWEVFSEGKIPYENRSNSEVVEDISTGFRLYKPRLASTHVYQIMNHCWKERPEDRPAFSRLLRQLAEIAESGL

Work on `Cc1cnc(-c2ccc(-c3ccc(NC(=O)Nc4c(F)cc(F)cc4F)cc3F)c3c2C(=O)NC3)[nH]1` [Compound 7, 1-{3-fluoro-4-[7-(5-methyl-1H-imidazol-2-yl)-1-oxo-2,3-dihydro-1H-isoindol-4-yl]-phenyl}-3-(2,4,6-trifluorophenyl)urea] yielded a Kd (FLT3(D835Y)) of 4.2 nM, a Kd (FLT3(N841I)) of 0.76 nM and a Kd (FLT3(WT) [1]) of 0.24 nM. The IC50 (FLT3(WT) [2]) was 8.75 nM, the IC50 (ITK) was 4.3 nM and the IC50 (KG-1) was 28.7 nM. For the same compound, the IC50 (Molm-13) was 0.395 nM, the IC50 (THP-1) was 2970 nM and the IC50 (Ba/F3-FLT3 (FLT3-WT)) was 9.49 nM. The IC50 [3] was 0.92 nM, the IC50 (Kasumi-1 (FLT3-WT)) was 22 nM and the Exposure ([4]; 2 mg/kg administered by i.v.) was “Reasonable exposure”. The AUC ([4]; administered orally, FIG. 5) was “AUC improves in a dose-dependent manner”, the Tumor volume [5] was “reduces tumor volume with increased dose” and the Polyploidies [6] was “induce polyploidies”. For the same compound, the Cell-cycle dysregulation (KG-1 cells) was “induce cell-cycle dysregulation”, the Cell-cycle dysregulation (NOMO-1 cells) was “induce cell-cycle dysregulation” and the Cell-cycle dysregulation [7] was “induce cell-cycle dysregulation”. The “Aurora kinase activity and signaling (Western blot)” value [8] was “inhibits Aurora kinase activity and signaling”, the “Aurora kinase activity and signaling (Western blot)” value [9] was “inhibits Aurora kinase activity and signaling” and the “PDGFRA and FLT3 (WT) signaling (Western blot)” value [10] was “inhibits PDGFRA and FLT3 (WT) signaling”. For the same compound, the “Apoptosis induction versus ibrutinib” value (Ramos [11]) was “induced apoptosis more effectively than ibrutinib at all concentrations tested”, the “Polyploidy (>4n) followed by apoptosis” value (Ramos [12]) was “effectively induced polyploidy (>4n) followed by apoptosis” and the “BTK and Aurora kinase activity” value [13] was “inhibits BTK and Aurora kinase activity”. The BCR signaling [14] was “affects the BCR signaling”.
